Where “and” joins values, the source holds several entries; their conditions need not be identical. Identical values can stand only once. Entries after “also recorded” stand apart in the source; their conditions may differ. Counter-ions that a name gives are not always drawn. Like-named read-outs stand apart in the source and are kept apart here. Values belong to the compound of their own block, whether it stands above or below them.
Key:
hSMOX in A549 cells = biological target: T1, hSMOX in A549 cells (Homo sapiens, UniProt Q9NWM0); experiment: CETSA in A549 cells with hSMOX AlphaLISA detection; format: cell-based; details: A549 intact cells, 54 °C, vs vehicle
T1 construct: human lung carcinoma cells (A549) which endogenously produce high levels of hSMOX; endogenous in cells; host or cells: A549 human lung carcinoma cells
Source text: To determine whether JNJ-1289 would be able to target hSMOX in a cellular environment, we developed a Cellular Thermal Shift Assay (CETSA®)[52] using human lung carcinoma cells (A549) which endogenously produce high levels of hSMOX[53]. CETSA evaluates the binding of low molecular weight compounds to target proteins directly in intact cells by taking advantage of the increased resistance to thermal denaturation that ligand binding can confer on proteins. Detection of the relative amounts of remaining soluble protein using AlphaLISA after incubation of A549 cells at the optimal melting temperature of hSMOX for CETSA (54 °C) was performed in the presence or absence of hSMOX ligands.
A549 (adenocarcinoma human alveolar basal epithelial cells) express relatively high levels of hSMOX. Their use has been widely reported in the literature for the investigation of the polyamine catabolic pathway. In our case, using hSMOX high-expressing cells with CETSA and AlphaLISA systems provided the optimal platform for screening promising small molecules for hSMOX inhibition.
T175 culture flasks with 80–90% confluent cells were used for harvesting after washing two times with PBS followed by the addition of 2 mL TrypLE^TMselect (Gibco) per flask and incubation for 5 min at 37 °C. After dissociation, cells were resuspended in 1 mL culture medium (DMEM (Gibco) with 10% fetal calf serum) and 7 mL PBS. Cells from multiple flasks were pooled, spun down for 5 min at 300 × g, and resuspended to 20 million cells/mL in PBS.
Compounds were dissolved in DMSO to 1 mM stocks. Compound stocks and DMSO controls were added to vials containing 1 mL cell suspension to an end concentration of 10 µM compound and 1% DMSO. Vials were incubated at 37 °C for 1 h while shaking at 125 rpm. Subsequently, vials were cooled on ice and cells were distributed to PCR vials at 20 µL per vial. Transient heating of the cells was performed using a PCR Thermocycler. Vials were heated up to 54 °C for 1 min and then immediately cooled on ice. For temperature range experiments the heating step was repeated increasing the temperature with each next vial with 1 °C. After the cooling step cells were lysed by adding 80 µL 1x AlphaLISA-buffer (Perkin Elmer).
The hSMOX specific AlphaLISA was developed using internally monoclonal rabbit antibody mAb#2 and F(ab’)2 fragment Fab#33 against hSMOX containing a C-terminal His-tag. Both mAb#2 and Fab#33 are specific for hSMOX and selected for their ability to detect hSMOX without interfering with its catalytic activity. Care was taken to confirm that both mAb#2 and Fab#33 bind to distinct (conformational) epitopes. […] After 1 h Alpha signal was read using an Alpha compatible reader. […]

hSMOX [1] = biological target: T2, hSMOX (Homo sapiens, UniProt Q9NWM0); experiment: hSMOX HyPerBlu chemiluminescent enzyme activity assay (H2O2 detection, Spm substrate); format: biochemical; details: for time-dependent inhibition of hSMOX: ± 2 h preincubation with enzyme
T2 construct: 6xHis (N); TEV cleavage site (N); made in house; host or cells: E. coli BL21(D3), plasmid PET28b(+)
Source text: Based on this assay, we carried out a high-throughput screening campaign searching for inhibitors of hSMOX against a diverse compound collection.

LSD1 = LSD1 (Homo sapiens, UniProt O60341); experiment: LSD1 HyPerBlu enzyme activity assay (H3K4me2 peptide substrate)
hSMOX [2] = biological target: T2, hSMOX; experiment: Thermal shift assay (ThermoFluor, ANS dye) of purified hSMOX; format: binding; details: compared to DMSO control
Protocol: The fluorescent dye ANS (Molecular Probes) was used to monitor the thermal denaturation of hSMOX. Assay buffer consisting of 10 mM HEPES pH 7.5, 150 mM NaCl, 0.005% P20 was used for all dilutions. The assay was performed in 384-well Hard Shell thin-wall PCR plates (Bio-Rad). 120 nL of ligand was dispensed into the 384-well plate using acoustic dispensing technology followed by the addition of 4 µL of 0.2 mg/ml of hSMOX with 60 µM ANS dye. Replicates of 4% DMSO protein control were set up in each plate. Wells were covered with 1 µL silicone oil. Plates were centrifuged at 1000 rpm for 2 min. The Tm’s were measured using a ThermoFluor instrument. The plates were heated from 30 to 80 °C at a rate of 1 °C per minute. The ΔTm is calculated as the difference between the Tm of each well and that of the average 4% DMSO protein control.

hSMOX [3] = biological target: T2, hSMOX; experiment: Progress curve analysis of hSMOX inhibition (on rate, mode of inhibition); format: biochemical
Protocol: Reactions were initiated with 3 µL/well of 2x hSMOX and quenched at several time points up to 1 h with 3 µL/well of 25 µM final chlorhexidine. […] Thereafter, 9 µL/well of HyPerBlu reagent was added.
Time point data up to 1 h of reaction time was captured by dispensing 3 µL/well of 25 µM final chlorhexidine to quench the reactions followed by the addition of 9 µL/well HyPerBlu reagent.
Supplementary Fig. 11. Kinetics of JNJ-1289. a, Reaction progress curve analysis of 2 nM […]
Progress curves were monitored for 1h and fit to Eqn S1 at each JNJ-1289 concentration to determine the observed rate constant, kobs.
[P] = Y0 + υ t + υi−υs (1 − e−kobst) (S1) […]
where υi and υs are the initial and steady state velocities, respectively, t is time and kobs represents the observed rate constant. b, Replot of kobs vs. [JNJ-1289] was hyperbolic, which indicated a two-step binding mechanism […]
where I is the inhibitor concentration, k5 and k6 are the estimated forward and reverse rate constants, respectively, and Kiapp is the apparent value of the initial E·I complex. […]
concentrations (7.8 – 1000 µM). Progress curves were monitored for 1h and fit to Eqn S3 at […]
(1 picture or pasted object on this page, not shown here)

hSMOX [4] = biological target: T2, hSMOX; experiment: nanoDSF thermal denaturation of purified SMOX; format: binding; details: 10 μM SMOX, 100 μM compound
Protocol: All nanoDSF experiments were performed on a nanoTEMPER Prometheus NT.48 instrument. 10 μM purified SMOX was incubated with 100 μM compound of interest for 10 min and loaded onto the instrument. Thermal denaturation (25–90 °C) was conducted at 1.0 °C/min and 45% intensity. Tm was calculated using PR.ThermControl software as the inflection point of the first derivative of Trp fluorescence during the temperature gradient measured at 350/330 nm. All experiments were performed in triplicate.

hPAOX = hPAOX (Homo sapiens, UniProt Q6QHF9); experiment: hPAOX HyPerBlu enzyme activity assay (N-AcSpm substrate)
Protocol: The activity of hSMOX, hPAOX, and LSD1 enzymes was measured using the HyPerBlu chemiluminescent reagent for the direct detection of the hydrogen peroxide product. […] Hydrogen peroxide product formation was monitored 30 min after the addition of HyPerBlu on a PHERAstar microplate reader (BMG LABTECH, Cary, NC). All compounds were spotted into the assay plates using Echo acoustic dispensing technology (BeckmanCoulter, Indianapolis, IN). Unless otherwise stated, all reactions were carried out in 384-well assay format.
2 µL/well of 2x substrate was dispensed into the assay plate followed by 2 µL/well of 2x enzyme to initiate the reactions. […] The data were fit to the 4-parameter IC50 equation in GraphPad Prism.
50 nL/well of the twofold inhibitor titrations in 100% DMSO were dispensed into the assay plate followed by the addition of 2.5 µL of 2x hSMOX or 2x hPAOX. A 2 h or 4 h E·I preincubation was carried out at a final concentration of 2 nM or 3 nM hSMOX or 60 pM hPAOX. […] For the 0 h preincubation control, the addition of the substrate solution was made prior to the enzyme solution. […] The data were fit to the 4-parameter IC50 equation in GraphPad Prism.
Briefly, 2.5 µL/well of the twofold substrate solutions prepared in buffer was added to the assay wells followed by 2.5 µL/well of the 2x enzyme to initiate the reactions.
The initial velocity data were fit to the Michaelis-Menten equation in GraphPad Prism. Y=Vmax*X/(Km+X) where Vmax is the maximal velocity, X is the substrate concentration and Km is the Michaelis-Menten constant. The kcat value was determined by dividing Vmax value by the enzyme concentration.

murine SMOX enzyme = details: value reported for the murine SMOX enzyme; cited from earlier work
[5] = 2.5 nM hSMOX, 30 µM Spm, 1 h reaction, HTS assay conditions, read-out: IC50 hSMOX

Sequence of hPAOX (Q6QHF9 whole entry): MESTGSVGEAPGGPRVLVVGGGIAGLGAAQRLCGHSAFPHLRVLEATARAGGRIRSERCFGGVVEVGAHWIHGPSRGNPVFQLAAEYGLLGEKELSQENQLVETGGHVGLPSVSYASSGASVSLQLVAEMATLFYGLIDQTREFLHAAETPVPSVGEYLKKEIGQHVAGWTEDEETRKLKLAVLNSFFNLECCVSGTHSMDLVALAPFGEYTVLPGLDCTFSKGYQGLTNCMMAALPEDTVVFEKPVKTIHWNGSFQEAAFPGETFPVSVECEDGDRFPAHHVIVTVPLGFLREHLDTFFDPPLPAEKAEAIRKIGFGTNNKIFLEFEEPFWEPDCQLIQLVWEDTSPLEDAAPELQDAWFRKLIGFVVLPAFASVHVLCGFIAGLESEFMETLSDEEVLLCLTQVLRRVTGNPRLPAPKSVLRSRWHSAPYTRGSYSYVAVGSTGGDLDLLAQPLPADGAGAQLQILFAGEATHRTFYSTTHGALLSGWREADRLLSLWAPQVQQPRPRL
T2 sequence (Q9NWM0 whole entry): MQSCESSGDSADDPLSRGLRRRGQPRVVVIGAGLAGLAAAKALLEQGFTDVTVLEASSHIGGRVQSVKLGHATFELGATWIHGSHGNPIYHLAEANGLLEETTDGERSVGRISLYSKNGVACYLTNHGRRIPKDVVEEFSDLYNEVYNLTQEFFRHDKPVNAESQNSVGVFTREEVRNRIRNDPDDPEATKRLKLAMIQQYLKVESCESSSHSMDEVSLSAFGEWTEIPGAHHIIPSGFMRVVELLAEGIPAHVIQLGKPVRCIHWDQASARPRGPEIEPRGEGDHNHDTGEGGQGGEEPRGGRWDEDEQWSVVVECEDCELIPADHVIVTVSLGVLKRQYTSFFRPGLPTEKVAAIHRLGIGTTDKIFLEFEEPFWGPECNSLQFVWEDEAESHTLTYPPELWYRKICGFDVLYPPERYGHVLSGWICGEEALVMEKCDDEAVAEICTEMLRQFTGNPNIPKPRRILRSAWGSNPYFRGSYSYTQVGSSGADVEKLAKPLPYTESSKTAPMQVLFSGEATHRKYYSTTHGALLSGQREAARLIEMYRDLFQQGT
T1 sequence (Q9NWM0 whole entry): as above

SMILES: CCNCCCNCCCNCCCNCC [Benspm]
cellular hSMOX engagement (AlphaLISA signal after heating) (hSMOX in A549 cells): absence of cellular hSMOX engagement

SMILES: CC(=O)NCCCNCCCCNCCCN [N-AcSpm, N^1-acetylspermine trihydrochloride]
Km (hPAOX; read-out: Km for hPAOX, substrate, 0.076 nM hPAOX): 20.1 ± 0.63 µM | kcat hPAOX (hPAOX; substrate, 0.076 nM hPAOX): 57 s⁻¹

SMILES: NCCCNCCCCNCCCN [Spm, spermine]
kcat hSMOX (hSMOX [1]; substrate, 2.5 nM hSMOX): 4 s⁻¹

SMILES: [H]/N=C(\N/C(=N/[H])NCCCCCCNC(=N)NC(=N)Nc1ccc(Cl)cc1)Nc1ccc(Cl)cc1 [chlorhexidine, reference compound]
inhibition of hSMOX (in words) (hSMOX [1]): robust inhibition | IC50 (hSMOX [1]; [5]): 1.9 µM | inhibition of hSMOX (in words) (hSMOX [1]; listed as Chlorhexidine): inhibited | time-dependent inhibition of hSMOX (hSMOX [1]): not observed | time-dependent inhibition of hSMOX (hSMOX [1]; listed as Chlorhexidine): did not display time-dependent inhibition | cellular hSMOX engagement (AlphaLISA signal after heating) (hSMOX in A549 cells): absence of cellular hSMOX engagement | Ki (murine SMOX enzyme): 3.8 ± 0.2 µM

Further lines, with some results ahead:

IC50 (hSMOX [1]; [5]): 0.05 µM | IC50 (hSMOX [1]; 2 h preincubation, 30 µM Spm, read-out: IC50 hSMOX, 2 h (120 min) enzyme-inhibitor preincubation): 0.0055 µM and 0.008 µM | IC50 (hSMOX [1]; IC50 hSMOX, 4 h (240 min) enzyme-inhibitor preincubation, 4 h preincubation, 30 µM Spm): 0.0032 µM | IC50 (hSMOX [1]; no preincubation, 30 µM Spm, read-out: IC50 hSMOX, 0 h enzyme-inhibitor preincubation): 0.143 µM and 0.127 µM | IC50 (LSD1): > 2 µM | ΔTm of hSMOX (thermal shift) (hSMOX [2]): 11.3 °C | mode of inhibition with respect to Spm (hSMOX [3]; 312 nM inhibitor, varying Spm, 2 nM hSMOX): competitive hSMOX inhibitor | t1/2 dissociation (hSMOX [3]; from 0.693/koff): 7.7 h | Ki (hSMOX [3]; read-out: apparent Ki (Ki app) of the initial E·I complex): 1.4 µM | kon (hSMOX [3]; read-out: apparent second-order on-rate constant (kon)): 2500 M⁻¹ s⁻¹ | koff (hSMOX [3]; read-out: calculated first-order dissociation rate constant (koff)): 2.5e-05 s⁻¹ | IC50 (hPAOX): > 2 µM | time-dependent inhibition of hPAOX (hPAOX; ± 2 h preincubation with enzyme): do not observe time-dependent inhibition
SMILES: Oc1ccc(Nc2nc(-c3cnc4ccccn34)cs2)cc1 [JNJ-1289, 4-((4-imidazo[1,2,α]pyridine-3-ylthiazol-2-yl)amino)phenol]
IC50 hSMOX, 4 h (240 min) enzyme-inhibitor preincubation (hSMOX [1]; 4 h preincubation, 30 µM Spm): within twofold of the results observed using a 120 min pre-incubation | time-dependent inhibition of hSMOX (hSMOX [1]): selective and time-dependent inhibition; also recorded: time-dependent hSMOX inhibitor | cellular hSMOX engagement (AlphaLISA signal after heating) (hSMOX in A549 cells): absence of cellular hSMOX engagement; also recorded: apparent lack of target engagement | thermal stability of hSMOX (nanoDSF) (hSMOX [4]): increase the thermal stability of the protein

cellular hSMOX engagement (AlphaLISA signal after heating) (hSMOX in A549 cells): robust cellular hSMOX engagement
SMILES: C=C=CCNCCCCNCC=C=C [MDL72527, reference compound]
thermal stability of hSMOX (nanoDSF) (hSMOX [4]): increase the thermal stability of the protein
